Earlier results, collected in patent publication US20160355464A1, “FUMARATE COMPOUNDS, PHARMACEUTICAL COMPOSITIONS THEREOF, AND METHODS OF USE” (priority 2015, published 2016).

aqueous solubility: poor aqueous solubility
Compound: COC(=O)/C=C/C(=O)OC [DMF, dimethylfumarate]
